{"source": "paper PMC8175350", "about": "“Drug repurposing screens identify chemical entities for the development of COVID-19 interventions” (Nature Communications, 2021)", "key": {"[1]": {"test_system": "HeLa-ACE2 cells", "assay": "Total cell count in the HeLa-ACE2 TOA assay", "type": "cell-based", "settings": "Homo sapiens", "excerpt": "Supplement 41467_2021_23328_MOESM3_ESM.xlsx, sheet \"Table S1\" | column: HeLa-ACE2 TOA cell count"}, "[2]": {"assay": "in vitro", "settings": "human"}, "[3]": {"test_system": "Calu-3 cells"}, "[4]": {"test_system": "Calu-3 cells", "assay": "cells", "settings": "Homo sapiens"}, "[5]": {"test_system": "SARS-CoV-2", "assay": "microbe, parasite or virus in culture", "type": "cell-based", "settings": "for %infected: HeLa-ACE2, replicates n=1, n=2"}, "[6]": {"test_system": "HeLa-ACE2 cells", "assay": "cells", "settings": "Homo sapiens, HeLa-ACE2, read-out: HeLa-ACE2 cell count EC50 GeoMean"}, "[7]": {"test_system": "SARS-CoV-2", "type": "cell-based", "settings": "72 hpi"}, "[8]": {"test_system": "SARS-CoV-2", "assay": "microbe, parasite or virus in culture", "type": "cell-based", "settings": "for TOA: HeLa-ACE2, replicates n=1"}, "[9]": {"test_system": "SARS-CoV-2", "assay": "microbe, parasite or virus in culture", "type": "cell-based", "settings": "for %infected: Calu-3, replicates n=1, n=2"}, "[10]": {"assay": "Uninfected HeLa-ACE2 24 h live/dead cytotoxicity counter screen", "type": "cell-based, human", "settings": "human, uninfected HeLa-ACE2 cells, reconfirmed hits; read-out: HeLa-ACE2 Uninf. cells CC50"}, "[11]": {"test_system": "HeLa-ACE2 cells", "assay": "Uninfected HeLa-ACE2 24 h live/dead cytotoxicity counter screen", "type": "cell-based, human", "settings": "for cytotox: HeLa-ACE2"}, "[12]": {"settings": "cited from earlier work"}}, "note": "pEC50: −log10 of the molar value. Where “and” joins values, the source holds several entries; their conditions need not be identical. Identical values can stand only once. Like-named read-outs stand apart in the source and are kept apart here.", "data": [{"smiles": "O=c1nc(NO)ccn1[C@@H]1O[C@H](CO)[C@@H](O)[C@H]1O", "note": "[N-hydroxycytidine]", "values": [{"measurement": "Emax", "setting": "[1]; HeLa-ACE2, 10 h, read-out: HeLa-ACE2 TOA cell count Sinf Average", "result": 100, "unit": "%"}, {"measurement": "pEC50", "setting": "[1]; HeLa-ACE2, read-out: HeLa-ACE2 TOA cell count EC50 GeoMean", "result": "< 5.02"}, {"measurement": "CC50 at 48 h", "setting": "[2]; Calu-3 Uninf. cells CC50 (µM)", "result": "> 29.9", "unit": "µM"}, {"measurement": "CC50 at 48 h", "setting": "[2]; Calu-3 uninfected cytotoxicity CC50 GeoMean", "result": 29.9, "unit": "µM"}, {"measurement": "uninfected Calu-3 CC50", "setting": "[3]", "result": "29.85 ×÷ 1 (n=2) μM"}, {"measurement": "Calu-3 uninfected cytotoxicity Sinf Average", "setting": "[3]; human, 48 h", "result": -100, "unit": "%"}, {"measurement": "Emax", "setting": "[4]; Calu-3, 48 h, read-out: Calu-3 cell count Sinf Average", "result": 100, "unit": "%"}, {"measurement": "pEC50", "setting": "[4]; Calu-3, read-out: Calu-3 cell count EC50 GeoMean", "result": 5.64}, {"measurement": "%infected", "setting": "[5]; concentration log[M] -5.01818", "result": "-95.9068% and -95.703% and -94.602% and -97.3369% and -96.6026% and -97.2941%"}, {"measurement": "%infected", "setting": "[5]; concentration log[M] -5.54106", "result": "-65.3775% and -59.3515% and -63.9298% and -52.8807% and -12.9328% and -65.202%"}, {"measurement": "%infected", "setting": "[5]; concentration log[M] -6.01818", "result": "-30.1084% and -28.1968% and -26.2247% and 6.562% and 13.7937% and -28.207%"}, {"measurement": "%infected", "setting": "[5]; concentration log[M] -6.42366", "result": "-20.845% and -20.4031% and 6.3056% and 22.7531% and 23.3232% and -10.0334%"}, {"measurement": "%infected", "setting": "[5]; concentration log[M] -6.90066", "result": "-9.321% and -9.37% and 63.7122% and 19.7824% and -5.072% and -8.1%"}, {"measurement": "%infected", "setting": "[5]; concentration log[M] -7.37799", "result": "-5.474% and -4.047% and 10.6164% and 29.7413% and 17.9839% and -7.442%"}, {"measurement": "%infected", "setting": "[5]; concentration log[M] -7.85511", "result": "-5.151% and -0.8478% and 5.043% and 11.903% and -2.081% and 8.512%"}, {"measurement": "%infected", "setting": "[5]; concentration log[M] -8.34746", "result": "2.419% and 1.409% and -2.874% and 18.1053% and 10.6681% and -1.579%"}, {"measurement": "Emax", "setting": "[5]; Severe acute respiratory syndrome coronavirus 2, HeLa-ACE2, 24 h, curve plateau at infinite concentration, read-out: HeLa-ACE2 CoV-2 Sinf Average", "result": 100, "unit": "%"}, {"measurement": "pEC50", "setting": "[5]; Severe acute respiratory syndrome coronavirus 2, HeLa-ACE2, reconfirmed hits, read-out: HeLa-ACE2 SARS-CoV-2 EC50", "result": 5.68}, {"measurement": "pEC50", "setting": "[6]", "result": "< 5.02"}, {"measurement": "reduction in apical viral loads", "setting": "[7]", "result": "> 1", "unit": "log"}, {"measurement": "TOA", "setting": "[8]; concentration log[M] -5.01818", "result": "-88.6412 and -82.7703 and -80.6006"}, {"measurement": "TOA", "setting": "[8]; concentration log[M] -5.54106", "result": "-32.1719 and -27.0134 and -25.6358"}, {"measurement": "TOA", "setting": "[8]; concentration log[M] -6.01818", "result": "-19.1217 and -14.6661 and -4.943"}, {"measurement": "TOA", "setting": "[8]; concentration log[M] -6.42366", "result": "4.0678 and -1.902 and 3.9754"}, {"measurement": "TOA", "setting": "[8]; concentration log[M] -6.90066", "result": "9.161 and 4.654 and 6.517"}, {"measurement": "TOA", "setting": "[8]; concentration log[M] -7.37799", "result": "8.185 and 12.3603 and -5.097"}, {"measurement": "TOA", "setting": "[8]; concentration log[M] -7.85511", "result": "-1.637 and 10.875 and -15.0843"}, {"measurement": "TOA", "setting": "[8]; concentration log[M] -8.34746", "result": "4.125 and 6.481 and 1.9398"}, {"measurement": "Emax", "setting": "[8]; Severe acute respiratory syndrome coronavirus 2, HeLa-ACE2, 10 h, curve plateau at infinite concentration, read-out: HeLa-ACE2 TOA CoV-2 Sinf Average", "result": 100, "unit": "%"}, {"measurement": "pEC50", "setting": "[8]; Severe acute respiratory syndrome coronavirus 2, HeLa-ACE2, read-out: HeLa-ACE2 TOA CoV-2 EC50 GeoMean", "result": 5.39}, {"measurement": "%infected", "setting": "[9]; concentration log[M] -5.00096", "result": "-104.882% and -104.039% and -104.073% and -87.0522% and -95.3104% and -95.1991%"}, {"measurement": "%infected", "setting": "[9]; concentration log[M] -5.47808", "result": "-102.424% and -94.8216% and -96.2613% and -79.6455% and -88.2245% and -78.3438%"}, {"measurement": "%infected", "setting": "[9]; concentration log[M] -6.08014", "result": "-48.1883% and -55.6504% and -62.6482% and -43.1506% and -54.549% and -44.7088%"}, {"measurement": "%infected", "setting": "[9]; concentration log[M] -6.42922", "result": "-25.3967% and -10.7735% and -12.1745% and -21.3919% and -25.2933% and -26.102%"}, {"measurement": "%infected", "setting": "[9]; concentration log[M] -6.90623", "result": "2.702% and -5.189% and -14.5454% and -5.7089% and 20.5633% and -23.5818%"}, {"measurement": "%infected", "setting": "[9]; concentration log[M] -7.50836", "result": "7.0582% and -3.1% and 10.044% and -11.1778% and -10.264% and 16.3735%"}, {"measurement": "%infected", "setting": "[9]; concentration log[M] -7.85886", "result": "-6.015% and 34.2889% and -1.001% and -2.481% and -24.9588% and 14.4808%"}, {"measurement": "%infected", "setting": "[9]; concentration log[M] -8.33602", "result": "34.4513% and -7.593% and -0.3699% and -1.01% and 8.564% and 15.1555%"}, {"measurement": "Emax", "setting": "[9]; Severe acute respiratory syndrome coronavirus 2, Calu-3, 48 h, curve plateau at infinite concentration, read-out: Calu-3 CoV-2 Sinf Average", "result": 102, "unit": "%"}, {"measurement": "pEC50", "setting": "[9]; Severe acute respiratory syndrome coronavirus 2, Calu-3, reconfirmed hits, read-out: Calu-3 SARS-CoV-2 EC50", "result": 6.10}, {"measurement": "CC50 at 24 h", "setting": "[10]", "result": "> 37.5", "unit": "µM"}, {"measurement": "cytotox", "setting": "[11]; concentration log[M] -4.40012, replicates n=1, n=2", "result": "-52.5894 and -47.3606 and -59.8571 and -45.9651 and -54.0657 and -40.7828"}, {"measurement": "cytotox", "setting": "[11]; concentration log[M] -4.82681, replicates n=1, n=2", "result": "-38.4391 and -39.4796 and -38.1429 and -39.2039 and -43.0802 and -30.2326"}, {"measurement": "cytotox", "setting": "[11]; concentration log[M] -5.30277, replicates n=1, n=2", "result": "-30.8534 and -12.119 and -16 and -17.6118 and -29.9408 and -19.0017"}, {"measurement": "cytotox", "setting": "[11]; concentration log[M] -5.82681, replicates n=1, n=2", "result": "-4.449 and -6.9145 and -4 and -19.1385 and -7.754 and 0.2836"}, {"measurement": "cytotox", "setting": "[11]; concentration log[M] -6.25414, replicates n=1, n=2", "result": "-16.849 and -13.6059 and -16.5714 and -13.1407 and -8.078 and -16.506"}, {"measurement": "cytotox", "setting": "[11]; concentration log[M] -6.73049, replicates n=1, n=2", "result": "-10.2845 and 8.996 and -3.286 and -2.1265 and -9.908 and -9.472"}, {"measurement": "cytotox", "setting": "[11]; concentration log[M] -7.25727, replicates n=1, n=2", "result": "1.386 and -4.089 and -25.4286 and -12.8135 and -14.6473 and -10.7204"}, {"measurement": "cytotox", "setting": "[11]; concentration log[M] -7.68403, replicates n=1, n=2", "result": "-8.534 and -5.279 and -6.286 and -2.672 and -11.8471 and 1.418"}, {"measurement": "cytotox", "setting": "[11]; concentration log[M] -8.16052, replicates n=1, n=2", "result": "-5.325 and 4.535 and -3.571 and -9.869 and -22.4017 and -12.0817"}, {"measurement": "cytotox", "setting": "[11]; concentration log[M] -8.59517, replicates", "result": "-2.261 and -3.197 and -3.429 and -6.707 and -1.077 and -11.9682"}, {"measurement": "HeLa-ACE2 uninfected cytotoxicity Sinf Average", "setting": "[11]; curve plateau at infinite concentration", "result": -100, "unit": "%"}, {"measurement": "Approx. t1/2", "setting": "[12]; NHP, ref [45]", "result": 1, "unit": "h"}, {"measurement": "Cmax", "setting": "[12]; in vivo, po", "result": 3.3, "unit": "µM"}]}]}
